Test results from patent EP4733301A1 (priority 2023, dated 2025).

Columns and labels:
[1] = X-ray-induced release of coumarin reporter 7-Deacca from Compounds 1-9 in phosphate buffer (UPLC-MS); assay type: physicochemical; conditions: for release efficiency in KNO3 solution relative to control: 10 mM KNO3 added; for reactivity to radiation reduction: ortho-/para-substituted esters versus meta-substituted ones (Compounds 2, 5, 8); for release efficiency (in words): NAP esters
Experimental: (§1) Pretreated solution (approx. 1-2 mL) was sealed in glass vials with rubber stoppers and metal caps. All tubular radiation experiments were pretreated using the freeze-thaw method to remove dissolved oxygen from the solution. The solution was frozen, then vacuum was applied for several minutes until thawed to room temperature.
X-ray irradiation was performed using an X-ray generator (RS2000 Pro 225, 225 kV, 17.7 mA; Rad Source Technologies, Inc).
(§2) Tubes were irradiated with X-rays, with a total dose of 0-60 Gy, at a rate of 2 Gy/min. Cells were irradiated with X-rays at different doses at a rate of 2 Gy/min.
• 1. Standard preparation and calibration curves. The standard (coumarin, MeRho or MMAE) was dissolved in DMSO solution to make a 10 mM stock solution. The stock was diluted with deionized water to obtain solutions of suitable concentration gradients. These standard solutions were analyzed by UPLC-MS to generate calibration curves for the respective standard compounds. The peak areas of the target compounds were within the linear range of the curves. The relative standard deviation for duplicate injections of each standard solution was less than 5.0%. • 2. Analysis and calculation. After different treatments, the reaction mixtures were analyzed by ultra-performance liquid chromatography-mass spectrometry. The amount of cargo was calculated as equivalents of their respective external standard.
(§3) As a representative example, the detailed procedure for X-ray-induced reduction of Compound 1 is described below. A stock solution of Compound 1 (10 mM in DMSO) was diluted in PB (0.02 M, pH 7.4) to a final concentration of 10 µM. Solutions were deoxygenated using the aforementioned deoxygenation step prior to X-ray irradiation from 0 to 60 Gy. Reaction mixtures were analyzed using UPLC and a fluorescence spectrometer, and amount of product release was quantified via standard curves.
(§4) The elution program for Compounds 1-9 and NAPC-MeRho was Method a: H2O + 5% ACN (0 min)-95% H2O + 5% ACN (0.2 min)-5% H2O + 95% ACN (2.8 min)-5% H2O + 95% ACN (2.9 min)-95% H2O + 5% ACN (3.0 min)-95% H2O + 5% ACN (4.0 min). Injection volume: 10 µL.
10 mM KNO3 was added to the radiation system of Compound 1 (10 µM, in PB, pH 7.4) Reactivity test (10 µM, 0.1% DMSO): Determination of 7-Deacca release in PB (20 mM, pH 7.4) after deoxygenation and 60 Gy X-ray irradiation. Encouragingly, UPLC-MS detected coumarin release (FIG. 32), with a release efficiency of 33.5 ± 9.1% (FIG. 4), resulting in 55.8 nM/Gy.
7-Deacca was designed to be protected by a series of molecules Compounds 2-9 with pyridyl, quinolinyl, and N-methylpyridyl groups. Stock solutions of Compounds 2-9 (10 mM in DMSO) were diluted in PB (10 µM, 0.1% DMSO), then irradiated with 60 Gy X-rays, and analyzed by UPLC-MS to determine the yield of free 7-Deacca (FIG. 35).
10 mM HCOONa or KNO3 was added to the radiation system of Compound 7 (10 µM, in PB, pH 7.4). […] It can be explained that radicalized HCOONa in water reacts with ·OH and hydrogen radicals (·H) to generate carboxylate radicals […], which is another reducing agent with a standard electrode potential of -1.90 V, which may also be a possible explanation for the difference in its radiation reduction efficiency. Compared to the quinolinyl moiety with higher electron density (lower reduction potential), the positive charge on the pyridyl moiety with lower electron density (higher reduction potential) has higher affinity for the negatively charged e^-aq, resulting in the highest radiation reduction efficiency among them for the pyridyl moiety.

[2] = X-ray-induced AMC release from Compound 10 in PB (UPLC); assay type: physicochemical; conditions: 10 µM, 0.02 M PB pH 7.4, 0-60 Gy
Experimental: as §1, §2, §3
(§5) Method B was used for elution of Compound 10, mixtures of Compound 7 with other RPGs, and mixtures of Compound 10 with other rpg: 95% H2O + 5% ACN (0 min)-95% H2O + 5% ACN (0.2 min)-70% H2O + 30% ACN (3.0 min)-70% H2O + 30% ACN (3.6 min)-95% H2O + 5% ACN (3.7 min)-95% H2O + 5% ACN (5.0 min). Injection volume: 10 µL.
The inventors synthesized Compound 10 (NAPC-AMC) containing NAP-protected 7-amino-4-methylcoumarin (AMC). […]

[3] = Competition reaction of Compound 10 with prior-art RPGs (Compounds 11, 12, 13) under 60 Gy X-ray; assay type: physicochemical; conditions: each component 10 µM in PB pH 7.4, deoxygenated, versus Compounds 11, 12, 13
Experimental: as §5
The inventors mixed the reported RPGs with Compound 10, providing solutions of [10+11], [10+12], [10+13], respectively (each component: 10 µM in PB, pH 7.4). The solutions were deoxygenated and irradiated with 60 Gy X-rays, and their release efficiencies were analyzed by UPLC-MS (FIG. 11) and summarized in FIG. 12. The lower part of the bars and the upper part of the bars represent the activation ratio of Compound 10 and each competing component in the irradiation system, respectively.

[4] = X-ray-induced MeRho release from NAPC-MeRho in PB (fluorescence, UPLC); assay type: physicochemical; conditions: 10 µM, gradient dose 0 to 60 Gy
Experimental: as §3, §4
The inventors performed proof-of-concept for a radiation-responsive fluorescent probe NAPC-MeRho (FIG. 13), designed for quantitative analysis of radiation-induced release. […] Under physiological conditions, irradiating 10 µM NAPC-MeRho with a gradient dose from 0 to 60 Gy caused fluorescence intensity to increase in a linear manner (FIG. 14 and FIG. 15), and UPLC spectra determined a G-value for MeRho release of 140 nM/Gy (FIG. 15). To test whether the radiation reduction reaction can occur in living cells without interference, stability to biological reducing agents and cytotoxicity to different cell lines were evaluated. […]

[5] = assay type: physicochemical
Experimental: 20 µM NAPC-MeRho was mixed with an equal volume of 2 mM sodium ascorbate solution, incubated and detected at different time points using a fluorescence spectrometer and UPLC-MS. Stability test results in cysteine and γ-glutathione solutions were the same.
(§6) The inventors performed proof-of-concept for a radiation-responsive fluorescent probe NAPC-MeRho (FIG. 13), designed for quantitative analysis of radiation-induced release. The NAPC linker selectively responds to e^-aq generated by X-rays, where C-O bond cleavage of the carbamate occurs, followed by decarboxylation to release fluorescent MeRho (FIG. 13). Under physiological conditions, irradiating 10 µM NAPC-MeRho with a gradient dose from 0 to 60 Gy caused fluorescence intensity to increase in a linear manner (FIG. 14 and FIG. 15), and UPLC spectra determined a G-value for MeRho release of 140 nM/Gy (FIG. 15). To test whether the radiation reduction reaction can occur in living cells without interference, stability to biological reducing agents and cytotoxicity to different cell lines were evaluated. […] VcNa at pH 7.4, and cell viability with 10 µM NAPC-MeRho was greater than 95%.

[6] = test system: 4T1-FAP, HT1080-FAP and U87-MG cells; assay type: cell-based; conditions: 10 µM NAPC-MeRho, different cell lines
Experimental: as §6
Cell viability was assessed using CCK-8 assay. Each experiment was performed in triplicate. […] Incubated at 37 °C, 5% CO2 for 2 hours, absorbance was measured at 450 nm. The absorbance of treated cells was compared to that of the control group, whose viability was set at 100%.

[7] = test system: 4T1-FAP cells; assay: Confocal fluorescence imaging of radiation-induced MeRho release in cells; assay type: cell-based, Mouse; conditions: 10 µM
Experimental: (§7) Typically, cells were seeded at a density of 2×10^5 cells/mL in 35-mm confocal dishes and cultured under hypoxic conditions in an incubator containing 5% CO2 at 37 °C for 24 hours. A stock solution of NAPC-MeRho (10 mM) was prepared in DMSO. Attached cells were washed twice with PBS before adding the fluorescence probe at a final concentration of 10 µM in 1 mL deoxygenated HBSS. After hypoxic incubation at 37 °C for 30 min, they were subjected to X-ray irradiation for […] (0, 4, 8, 16 Gy), and fluorescence images were taken with a laser scanning confocal microscope (Nikon, Japan). Excitation wavelength was 488 nm, fluorescence emission window was 500-530 nm. For imaging quantification, all cells on the image were set as regions of interest, and fluorescence intensity was measured using Nikon imaging software (version 4.0).
(§8) Subsequent irradiation with 4, 8, and 16 Gy presented the appearance of green fluorescence from MeRho release (FIG. 16, right lanes), with fluorescence intensity positively correlated with radiation dose (FIG. 17).

[8] = test system: HT1080-FAP cells; assay: as above; assay type: cell-based, Human; conditions: 10 µM, hypoxic conditions, 30 minutes, no radiation
Experimental: as §7, §8

[9] = test system: U87MG cells; assay: as above; assay type: cell-based; conditions: 10 µM, hypoxic conditions, 30 minutes, no radiation
Experimental: as §7, §8

[10] = test system: 4T1-FAP tumors; assay: Radiation activation of NAPC-MeRho in tumors, fluorescence of tumor sections; assay type: in vivo, BALB/c mice; conditions: 20 µL of 100 µM locally injected
Experimental: Then, when examining the reduction of NAPC-MeRho in tumor-bearing mice, 20 µL of 100 µM NAPC-MeRho in PBS was locally injected into 4T1-FAP tumors, and X-ray therapy of 4 Gy was administered 30 minutes post-injection. Due to limited green light penetration, tumors were harvested and quickly frozen, and fluorescence intensity was quantified via confocal imaging. […] Furthermore, the MeRho signal was statistically greater than the non-irradiated group (FIG. 19), providing conclusive evidence that radiation reduction reactions are feasible in vivo.

[11] = 10 µM, 20 Gy irradiation (control conditions)

CCN(CC)c1ccc2cc(C(=O)OCc3ccncc3)c(=O)oc2c1 [Compound 1, Pyridin-4-ylmethyl-7-(diethylamino)-2-oxo-2H-chromene-3-carboxylate]
release efficiency (coumarin / 7-Deacca release) ([1]; 10 µM, 0.1% DMSO, PB 20 mM pH 7.4, deoxygenated, 60 Gy X-ray): 33.5 ± 9.1% | coumarin release efficiency ([1]; 10 µM, 20 Gy + 10 mM HCO2Na): 27.3% | coumarin release efficiency ([1]; 10 µM, 20 Gy + 10 mM KNO3): 1.3% | coumarin release efficiency [1, 11]: 16.7% | release efficiency in KNO3 solution relative to control ([1]; 10 µM in PB pH 7.4): significantly reduced | release per radiation dose ([1]; from release efficiency at 60 Gy, 10 µM in PB pH 7.4): 55.8 nM/Gy | reactivity to radiation reduction ([1]; 60 Gy X-ray): more reactive

CCN(CC)c1ccc2cc(C(=O)OCc3ccccn3)c(=O)oc2c1 [Compound 3, Pyridin-2-ylmethyl-7-(diethylamino)-2-oxo-2H-chromene-3-carboxylate]
reactivity to radiation reduction ([1]; 60 Gy X-ray): more reactive

CCN(CC)c1ccc2cc(C(=O)OCc3ccnc4ccccc34)c(=O)oc2c1 [Compound 4, Quinolin-4-ylmethyl-7-(diethylamino)-2-oxo-2H-chromene-3-carboxylate]
reactivity to radiation reduction ([1]; 60 Gy X-ray): more reactive

CCN(CC)c1ccc2cc(C(=O)OCc3ccc4ccccc4n3)c(=O)oc2c1 [Compound 6, Quinolin-2-ylmethyl-7-(diethylamino)-2-oxo-2H-chromene-3-carboxylate]
reactivity to radiation reduction ([1]; 60 Gy X-ray): more reactive

CCN(CC)c1ccc2cc(C(=O)OCc3cc[n+](C)cc3)c(=O)oc2c1 [Compound 7, (4-((7-(diethylamino)-2-oxo-2H-chromene-3-carbonyl)oxy)methyl)-1-methylpyridin-1-ium]
coumarin release efficiency ([1]; 10 µM, 20 Gy + 10 mM HCO2Na): 53.8% | coumarin release efficiency ([1]; 10 µM, 20 Gy + 10 mM KNO3): 0.0% | coumarin release efficiency [1, 11]: 27.6% | reduction yield on addition of HCOONa ([1]; 10 mM HCOONa added, 10 µM in PB pH 7.4): approximately doubled | release efficiency in KNO3 solution relative to control ([1]; 10 µM in PB pH 7.4): significantly reduced | release efficiency (in words) ([1]; 60 Gy X-ray): high release efficiencies | G-value (release of the reporter molecule) ([1]; X-ray dose gradient 0 to 60 Gy, UPLC): 140 nM/Gy | reactivity to radiation reduction ([1]; 60 Gy X-ray): more reactive

CCN(CC)c1ccc2cc(C(=O)OCc3cccc[n+]3C)c(=O)oc2c1 [Compound 9, (2-((7-(diethylamino)-2-oxo-2H-chromene-3-carbonyl)oxy)methyl)-1-methylpyridin-1-ium]
release efficiency (in words) ([1]; 60 Gy X-ray): high release efficiencies | reactivity to radiation reduction ([1]; 60 Gy X-ray): more reactive

Cc1cc(=O)oc2cc(NC(=O)OCc3cc[n+](C)cc3)ccc12 [Compound 10]
G (AMC release versus radiation dose) [2]: 145 nM/Gy | additional activation versus previously reported structures in competition [3]: 20-40%

COc1ccc2c(c1)Oc1cc(NC(=O)OCc3cc[n+](C)cc3)ccc1C21OC(=O)c2ccccc21 (stereo not shown) [NAPC-MeRho]
G-value for MeRho release [4]: 140 nM/Gy | stability to reducing agent VcNa ([5]; 10 µM, 100 eq. VcNa, pH 7.4): highly stable | stability in cysteine and γ-glutathione solutions ([5]; compared with result in sodium ascorbate solution): the same | cell viability [6]: greater than 95% | spontaneous release of MeRho ([7]; hypoxic conditions, 30 minutes, no radiation): no spontaneous release of MeRho | increase of fluorescence intensity ([7]; 4 Gy radiation): 14.4 fold | increase of fluorescence intensity ([7]; 8 Gy radiation): 27.9 fold | increase of fluorescence intensity ([7]; 16 Gy radiation): 54.5 fold | spontaneous release of MeRho [8]: no spontaneous release of MeRho | spontaneous release of MeRho [9]: no spontaneous release of MeRho | fluorescence signal in tumor sections ([10]; 4 Gy X-ray 30 minutes post-injection): significantly increased | fluorescence signal in tumor sections ([10]; NAPC-MeRho only): limited fluorescence signal
